Source: ChEMBL document CHEMBL4196082, “2-Aryl benzimidazoles: Synthesis, In vitro α-amylase inhibitory activity, and molecular docking study” (Eur J Med Chem, 2018)

Biological target: T1, Alpha amylase (Homo sapiens, UniProt P0DUB6)
T1 sequence (P0DUB6 whole entry): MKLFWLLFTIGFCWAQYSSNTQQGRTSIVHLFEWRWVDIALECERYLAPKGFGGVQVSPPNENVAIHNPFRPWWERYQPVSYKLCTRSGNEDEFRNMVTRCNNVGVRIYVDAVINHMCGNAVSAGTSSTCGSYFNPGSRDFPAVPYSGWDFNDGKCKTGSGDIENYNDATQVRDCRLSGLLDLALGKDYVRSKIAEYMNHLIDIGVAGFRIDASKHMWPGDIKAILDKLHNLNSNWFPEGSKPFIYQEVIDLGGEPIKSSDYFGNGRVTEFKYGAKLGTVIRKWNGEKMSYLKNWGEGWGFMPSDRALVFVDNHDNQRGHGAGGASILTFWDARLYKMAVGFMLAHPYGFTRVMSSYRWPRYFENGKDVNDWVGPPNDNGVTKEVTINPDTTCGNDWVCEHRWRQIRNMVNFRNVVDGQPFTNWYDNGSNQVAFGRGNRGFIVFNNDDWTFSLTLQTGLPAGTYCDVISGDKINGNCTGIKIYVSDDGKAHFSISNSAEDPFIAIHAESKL
Experiment: Inhibition of alpha-amylase (unknown origin) using starch as substrate preincubated for 10 mins followed by substrate addition measured after 10 mins by dinitrosalicylic acid reagent-based assay

Question: For `COc1cc(-c2nc3cc(Cl)ccc3[nH]2)cc(OC)c1O`, which IC50 is on record?
Answer: Its IC50 is 2.52 µM.

Question: With `O=[N+]([O-])c1ccc2[nH]c(-c3cc(Cl)cc(Br)c3O)nc2c1` as the compound, how does the IC50 read?
Answer: Its IC50 is 2.87 µM.

Question: `COc1ccc(Br)c(-c2nc3ccccc3[nH]2)c1O` was tested. Which IC50 did it give?
Answer: The IC50 was 2.48 µM.

Question: With `Oc1c(Br)cc(Cl)cc1-c1nc2ccccc2[nH]1` as the compound, how does the IC50 read?
Answer: The IC50 was 2.85 µM.

Question: With `Oc1ccc(-c2nc3cc(F)ccc3[nH]2)c(O)c1` as the compound, how does the IC50 read?
Answer: The IC50 was 2.98 µM.

Question: With `Oc1c(Cl)cc(Cl)cc1-c1nc2cc(F)ccc2[nH]1` as the compound, how does the IC50 read?
Answer: The IC50 was 2.87 µM.

Question: Which IC50 does the source give for `Oc1c(Br)cc(Cl)cc1-c1nc2cc(Cl)ccc2[nH]1` here?
Answer: The IC50 was 2.86 µM.

Question: `COc1cccc(-c2nc3cc([N+](=O)[O-])ccc3[nH]2)c1Cl` was tested. Which IC50 did it give?
Answer: The IC50 was 2.78 µM.

Question: `COc1cc(-c2nc3cc(F)ccc3[nH]2)cc(OC)c1O` was tested. Which IC50 did it give?
Answer: Its IC50 is 2.49 µM.

Question: For `Cc1cc2nc(-c3cc(Cl)cc(Br)c3O)[nH]c2cc1C`, which IC50 is on record?
Answer: The IC50 was 2.92 µM.

Question: How did the IC50 turn out when `COc1ccc(-c2nc3cc(F)ccc3[nH]2)c(Cl)c1OC` was run?
Answer: Its IC50 is 2.56 µM.

Question: For `COc1ccc(-c2nc3cc(F)ccc3[nH]2)c(F)c1`, which IC50 is on record?
Answer: The IC50 was 1.59 µM.

Question: With `COc1ccc(Br)c(-c2nc3cc(C)c(C)cc3[nH]2)c1O` as the compound, how does the IC50 read?
Answer: The IC50 was 2.26 µM.

Question: For `COc1cc(-c2nc3cc([N+](=O)[O-])ccc3[nH]2)ccc1OC(C)=O`, which IC50 is on record?
Answer: The IC50 was 1.73 µM.

Question: For `Cc1cc2nc(-c3cc(O)ccc3O)[nH]c2cc1C`, which IC50 is on record?
Answer: Its IC50 is 2.99 µM.

Question: Which IC50 does the source give for `COc1cc(-c2nc3cc(Cl)ccc3[nH]2)ccc1OC(C)=O` here?
Answer: Its IC50 is 1.68 µM.

Question: Which IC50 does the source give for `COc1cc(Br)c(-c2nc3cc(Cl)ccc3[nH]2)cc1OC` here?
Answer: The IC50 was 1.73 µM.

Question: For `COc1ccc(Br)c(-c2nc3cc(Cl)ccc3[nH]2)c1O`, which IC50 is on record?
Answer: Its IC50 is 2.21 µM.

Question: Which IC50 does the source give for `COc1ccc(-c2nc3cc([N+](=O)[O-])ccc3[nH]2)c(F)c1` here?
Answer: The IC50 was 2.75 µM.

Question: With `COc1ccc(-c2nc3cc(C)c(C)cc3[nH]2)c(F)c1` as the compound, how does the IC50 read?
Answer: Its IC50 is 2.78 µM.

Question: Which IC50 does the source give for `COc1cc(-c2nc3cc(C)c(C)cc3[nH]2)cc(OC)c1Br` here?
Answer: The IC50 was 1.59 µM.

Question: How did the IC50 turn out when `COc1cc(Br)c(-c2nc3cc([N+](=O)[O-])ccc3[nH]2)cc1OC` was run?
Answer: The IC50 was 1.87 µM.

Question: For `COc1cc(-c2nc3cc(C)c(C)cc3[nH]2)cc(I)c1O`, which IC50 is on record?
Answer: The IC50 was 1.77 µM.

Question: Which IC50 does the source give for `COc1cc(Br)c(-c2nc3ccccc3[nH]2)cc1OC` here?
Answer: The IC50 was 1.51 µM.

Question: Which IC50 does the source give for `COc1cc(Br)c(-c2nc3cc(F)ccc3[nH]2)cc1OC` here?
Answer: Its IC50 is 1.57 µM.

Question: With `COc1cc(-c2nc3cc(Cl)ccc3[nH]2)cc(I)c1O` as the compound, how does the IC50 read?
Answer: Its IC50 is 1.61 µM.

Question: Which IC50 does the source give for `COc1cc(-c2nc3cc([N+](=O)[O-])ccc3[nH]2)cc(I)c1O` here?
Answer: The IC50 was 1.72 µM.

Question: With `O=[N+]([O-])c1ccc2[nH]c(-c3cc(Br)ccc3F)nc2c1` as the compound, how does the IC50 read?
Answer: Its IC50 is 2.31 µM.

Question: Which IC50 does the source give for `COc1ccc(Br)c(-c2nc3cc(F)ccc3[nH]2)c1O` here?
Answer: The IC50 was 2.17 µM.

Question: For `Oc1c(Br)cc(Cl)cc1-c1nc2cc(F)ccc2[nH]1`, which IC50 is on record?
Answer: Its IC50 is 2.86 µM.

Question: How did the IC50 turn out when `COc1ccc(Br)cc1-c1nc2cc(Cl)ccc2[nH]1` was run?
Answer: The IC50 was 2.62 µM.

Question: With `COc1cc(Br)c(-c2nc3cc(C)c(C)cc3[nH]2)cc1OC` as the compound, how does the IC50 read?
Answer: Its IC50 is 1.48 µM.

Question: `COc1cccc(-c2nc3cc(C)c(C)cc3[nH]2)c1Cl` was tested. Which IC50 did it give?
Answer: Its IC50 is 2.84 µM.

Question: For `COc1cccc(-c2nc3cc(F)ccc3[nH]2)c1Cl`, which IC50 is on record?
Answer: The IC50 was 2.62 µM.

Question: `COc1ccc(-c2nc3cc(Cl)ccc3[nH]2)c(Cl)c1OC` was tested. Which IC50 did it give?
Answer: Its IC50 is 1.51 µM.

Question: With `COc1ccc(-c2nc3cc(C)c(C)cc3[nH]2)c(OC)c1OC` as the compound, how does the IC50 read?
Answer: The IC50 was 2.3 µM.

Question: For `COc1cccc(-c2nc3ccccc3[nH]2)c1Cl`, which IC50 is on record?
Answer: The IC50 was 2.74 µM.

Question: How did the IC50 turn out when `COc1cc(-c2nc3cc(F)ccc3[nH]2)ccc1OC(C)=O` was run?
Answer: The IC50 was 1.68 µM.

Question: With `COc1ccc(-c2nc3cc(Cl)ccc3[nH]2)c(F)c1` as the compound, how does the IC50 read?
Answer: Its IC50 is 2.74 µM.

Question: How did the IC50 turn out when `COc1cc(-c2nc3cc(Cl)ccc3[nH]2)cc(OC)c1Br` was run?
Answer: Its IC50 is 1.62 µM.

Question: `COc1ccc(Br)c(-c2nc3cc([N+](=O)[O-])ccc3[nH]2)c1O` was tested. Which IC50 did it give?
Answer: The IC50 was 2.29 µM.

Question: For `Cc1cc2nc(-c3cc(Cl)cc(Cl)c3O)[nH]c2cc1C`, which IC50 is on record?
Answer: The IC50 was 2.98 µM.

Question: `COc1ccc(Br)cc1-c1nc2cc(F)ccc2[nH]1` was tested. Which IC50 did it give?
Answer: Its IC50 is 2.6 µM.

Question: For `COc1cccc(-c2nc3cc(Cl)ccc3[nH]2)c1Cl`, which IC50 is on record?
Answer: The IC50 was 2.78 µM.

Question: With `Oc1ccc(-c2nc3cc(F)ccc3[nH]2)c(O)c1O` as the compound, how does the IC50 read?
Answer: The IC50 was 2.54 µM.
